Data: US20250051282A1, “COMPOUNDS FOR TREATING POLYQ-RELATED NEURODEGENERATIVE DISORDERS” (HANGZHOU JIJING PHARMACEUTICAL TECHNOLOGY LIMITED, priority 2021, published 2025)

System: ATXN1(60Q)
Assay: Daoy-ATXN1(60Q)-mATXN1 MSD assay (CTG normalized)
Type: cell-based
Settings: Daoy-Flag-ATXN1(60Q) stable cells, compound added Day 2, lysis Day 3, final DMSO 0.3%, read-out: Daoy-ATXN1(60Q)-mATXN1 MSD (CTG normalized) DC50
Experimental: Protocol for MSD Assay: Daoy-ATXN1(600)-mATXN1 MSD (CTG normalized)
The Flag-ATXN1(60Q) gene is synthesized by Genescript and cloned into the pLVX-IRES-Puro vector (Takarabio, catalog No. 632183) using EcoRI/BamHI restriction enzyme sites. Lentivirus is made by transfecting HEK293T cells with pLVX-IRES-Puro-Flag-ATXN1(60Q) plasmids and packaging plasmids psPAX2 and pMD2.G at 4:3:1 ratio (8:6:[…], respectively) in 10 cm plates, and are harvested at 48 hours post transfection. Daoy cells (ATCC catalog No. HTB-186) seeded in T25 flasks are infected with the lentivirus in the presence of 8 µg/mL polybrene (Sigma, TR-1003-G) for 24 hours. 48 hours post infection, the cells are selected using 0.5 […] (Sigma, P8833) for more than 5 days until all cells in the uninfected group die. The expression of Flag-ATXN1(60Q) is verified by anti-Flag immunoblot using anti-Flag antibody (Sigma, F1804-200UG, M2).
As explained above, Daoy-Flag-ATXN1(60Q) cells are prepared as a stable cell line by infecting Daoy cells with lentivirus. The media for the cells is EMEM (ATTC, 30-2008) with 10% fetal bovin serum (FBS).
On Day 1, the Daoy-Flag-ATXN1(60Q) cells are seeded in a 96 well plate at a concentration of 1.2×10^4/well. On Day 2, the cells are treated with test compounds at test concentrations (compounds are serially diluted with DMSO to obtain test concentrations, such that final DMSO concentration is 0.3%). On Day 3, the cells are washed with 100 μL of phosphate-buffered saline (PBS) per well, and then 30 μL of radioimmuno-precipitation assay (RIPA) buffer (with protease and phosphatase inhibitor cocktail) is added to each well.
The well plate is then cooled on ice for 30 minutes in order to complete lysis, and MSD samples are prepared using 10 μL of Daoy-Flag-ATXN1-60Q lysate and 90 μL of RIPA buffer with gentle mixing. Each MSD sample has a total volume of 100 μL, and is used immediately or stored at −80° C.
A standard Meso Scale Discovery (MSD) plate is coated with anti-Flag (Sigma, F1804-200UG, M2) in PBS at 1:500 dilution ratio and 40 µL/well, and is incubated at 4° C. overnight with shaking at 600 rpm. Then, the MSD plate is washed 3 times with 150 µL/well of 1X TBST (tris-buffered saline (TBS) with Tween 20) buffer, and the MSD plate is blocked with 150 μL of blocking buffer [3% Blocker A in 1X TBST, (3 g Blocker A per 100 mL 1X TBST)] and shaken for 1 hour at 600 rpm at room temperature. Then, the MSD plate is washed three times with 150 μL/well of 1X TBST. Next, the diluted lysate samples (from Sample Preparation above) are added to the MSD plate at 25 μL/well, and the MSD plate is shaken at 600 rpm for 1 hour at room temperature. Then the MSD plate is washed 3 times with 150 μL/well of 1X TBST.
Detection antibody anti-Ataxin 1 (G-bio, ITA1916) (1:500), which is prepared in antibody detection buffer (1% Blocker A in 1X TBST), is then added to the MSD plate at 25 µL/well, and the MSD plate is shaken at 600 rpm for 1 hour at room temperature. The MSD plate is then washed three times with 150 μL/well of 1X TBST. Next, a secondary detection antibody, Goat anti-rabit (GAR) with SULFO-TAG (1:500), which is prepared in antibody detection buffer (1% Blocker A in 1X TBST), is added at 25 μL/well and the MSD plate is shaken at 600 rpm for 1 hour at room temperature. Then the MSD plate is washed 3 times with 150 μL/well of 1X TBST, and 2X MSD reading buffer is added at 150 μL/well (diluted from 4x MSD reading buffer with water). Finally, the signal from each well is measured on the MSD Meso QuickPle SQ120 Plate Reader. DC50 data is calculated using collaborate drug discovery (CDD) software (https://www.collaborativedrug.com/about).

Row | Structure (SMILES) | DC50 [µM]
1 | Cn1cc(N/C(=C2\C(=O)Nc3ccc(Br)cc32)c2ccc(F)c(F)c2)cn1 [Example 43, (Z)-5-bromo-3-((3,4-difluorophenyl)((1-methyl-1H-pyrazol-4-yl)amino)methylene) indolin-2-one] | > 30
2 | O=C1Nc2ccc(Br)cc2/C1=C(/Nc1cccnn1)c1ccccc1 [Example 44, (Z)-5-bromo-3-(phenyl(pyridazin-3-ylamino)methylene) indolin-2-one] | > 30
3 | O=C1Nc2ccc(Br)cc2/C1=C(/Nc1cncnc1)c1ccccc1 [Example 45, (Z)-5-bromo-3-(phenyl(pyrimidin-5-ylamino)methylene) indolin-2-one] | < 10
4 | O=C1Nc2ccc(Br)cc2/C1=C(/Nc1cnccn1)c1ccccc1 [Example 46, (Z)-5-bromo-3-(phenyl(pyrazin-2-ylamino)methylene) indolin-2-one] | > 30
5 | O=C1Nc2ccc(Br)cc2/C1=C(/Nc1cnnc(Cl)c1)c1ccccc1 [Example 47, (Z)-5-bromo-3-((6-chloropyridazin-4-ylamino)(phenyl)methylene)indolin-2-one] | > 30
6 | N#Cc1n[nH]cc1N/C(=C1\C(=O)Nc2ccc(Br)cc21)c1ccccc1 [Example 48, (Z)-4-(((5-bromo-2-oxoindolin-3-ylidene)(phenyl)methyl)amino)-1H-pyrazole-3-carbonitrile] | > 30
7 | O=C1Nc2ccc(Br)cc2/C1=C(/Nc1cncs1)c1ccccc1 [Example 49, (Z)-5-bromo-3-(phenyl(thiazol-5-ylamino)methylene)indolin-2-one] | > 30
8 | Cn1cc(N/C(=C2\C(=O)Nc3ccc(Br)cc32)c2ccccc2)c(C(F)(F)F)n1 [Example 51, (Z)-5-bromo-3-(((1-methyl-3-(trifluoromethyl)-1H-pyrazol-4-yl)amino)(phenyl)methylene)indolin-2-one] | > 30
9 | O=C1Nc2ccc(Br)cc2/C1=C(/Nc1cnn(CCO)c1)c1ccccc1 [Example 53, (Z)-5-bromo-3-(((1-(2-hydroxyethyl)-1H-pyrazol-4-yl)amino)(phenyl)methylene)indolin-2-one] | 10 to 30
10 | O=C1Nc2ccc(Br)cc2/C1=C(/Nc1c[nH]nc1Cl)c1ccccc1 [Example 54, (Z)-5-bromo-3-((3-chloro-1H-pyrazol-4-ylamino)(phenyl)methylene)indolin-2-one] | > 30
11 | O=C1Nc2ccc(Br)cc2/C1=C(/Nc1cnn(C(F)F)c1)c1ccccc1 [Example 55, (Z)-5-bromo-3-(((1-(difluoromethyl)-1H-pyrazol-4-yl)amino)(phenyl)methylene)indolin-2-one] | > 30
12 | NCCN/C(=C1\C(=O)Nc2ccc(Br)cc21)c1ccc2[nH]c(=O)oc2c1 [Example 57, (Z)-6-(((2-aminoethyl)amino)(5-bromo-2-oxoindolin-3-ylidene)methyl) benzo[d]oxazol-2(3H)-one] | 10 to 30
13 | Nc1cccc(/C(NCCCF)=C2/C(=O)Nc3ccc(Br)cc32)c1 [Example 58, (Z)-3-((3-aminophenyl)((3-fluoropropyl)amino)methylene)-5-bromoindolin-2-one] | < 10
14 | Nc1cccc(/C(Nc2cn[nH]c2)=C2/C(=O)Nc3ccc(Br)cc32)c1 [Example 59, (Z)-3-(((1H-pyrazol-4-yl)amino)(3-aminophenyl)methylene)-5-bromoindolin-2-one] | < 10
15 | Nc1cccc(/C(Nc2ccnnc2)=C2/C(=O)Nc3ccc(Br)cc32)c1 [Example 60, (Z)-3-((3-aminophenyl) (pyridazin-4-ylamino)methylene)-5-bromo indolin-2-one] | < 10
16 | CC(=O)NCCOCCOCCOCCN/C(=C1\C(=O)Nc2ccc(Br)cc21)c1cccc(O)c1 [Example 61, (Z)—N-(1-(5-bromo-2-oxoindolin-3-ylidene)-1-(3-hydroxyphenyl)-5,8,11-trioxa-2-azatridecan-13-yl)acetamide] | 10 to 30
17 | COc1cc(/C(Nc2ccnnc2)=C2/C(=O)Nc3ccc(Br)cc32)ccc1N [Example 62, (Z)-3-((4-amino-3-methoxyphenyl)(pyridazin-4-ylamino)methylene)-5-bromoindolin-2-one] | > 30
